The text below walks through data of patent US20230073183A1, “IMPROVED URICASE AND METHOD FOR TREATING HYPERURICEMIA USING SAME” (SHANGHAI JUNSHI BIOSCIENCES CO., LTD., priority 2019, published 2023).

Positions count from the first letter of the chain named. Names and notes keep the numbering of the source.

What all share (type): biochemical
Data set [1] has as its target T1, reference uricase MEDI4945 (SEQ ID NO: 2) (Arthrobacter globiformis, UniProt D0VWQ1, N33C/R49S/T11C).
T1 sequence (D0VWQ1 with tags, fused parts or gaps T11C/N33C/R49S): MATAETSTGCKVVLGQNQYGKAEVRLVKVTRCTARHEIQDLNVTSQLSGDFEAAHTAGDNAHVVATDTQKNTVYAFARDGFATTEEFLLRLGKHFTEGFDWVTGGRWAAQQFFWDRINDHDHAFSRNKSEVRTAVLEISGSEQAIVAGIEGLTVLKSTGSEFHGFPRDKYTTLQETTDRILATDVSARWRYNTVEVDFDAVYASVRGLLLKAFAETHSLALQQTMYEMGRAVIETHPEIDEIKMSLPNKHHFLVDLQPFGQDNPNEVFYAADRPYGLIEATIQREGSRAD
Nature of the data set: Enzyme activity kinetic study of reference uricase with uric acid. Particulars: Tris-HCl pH 8.5, 37° C.; turnover number, substrate converted within one second. The procedure:
(§1) A reference uricase MEDI4945 was synthesized using a method similar to that described above, having an amino acid sequence of SEQ ID NO: 2. MEDI4945 is the uricase disclosed in International Application No. PCT/US2016/032415, having an amino acid sequence shown below:
(§2) A. Enzyme Activity Kinetic Study of PEGylated […]
(§3) Tris-HCl buffer system (pH 8.5) was used. The stock solution for uricase working solutions was 2 mM uric acid, which was stored at 4° C. Process of enzyme activity assay:
(§4) The temperature was set at 37° C.
(§5) Substrate (uric acid) concentration gradients: 600 μmol, 500 μmol, 400 μmol, 200 μmol, 100 μmol, 50 μmol, 25 μmol, and 12.5 μmol.
(§6) 50 μL of the above uric acid solution and 30 μL of the above Tris-HCl buffer were first added to a 96-well plate and incubated at 37° C. for 20 min. Then 20 μL of an appropriately diluted uricase solution (0.004 mg/mL) was rapidly added to the 96-well plate. Procedure setting: reaction for 10 min, one data reading every 20 s, and initiation of reaction.

The target of data set [2] is T2, Micrococcus uricase variant AG-2C12-PEG (S142C/E216C in AG-00-1, SEQ ID NO: 3; PEGylated) (Arthrobacter globiformis, UniProt D0VWQ1, E216C/S142C).
T2 construct: purified
T2 sequence (D0VWQ1 1-297 S142C/E216C): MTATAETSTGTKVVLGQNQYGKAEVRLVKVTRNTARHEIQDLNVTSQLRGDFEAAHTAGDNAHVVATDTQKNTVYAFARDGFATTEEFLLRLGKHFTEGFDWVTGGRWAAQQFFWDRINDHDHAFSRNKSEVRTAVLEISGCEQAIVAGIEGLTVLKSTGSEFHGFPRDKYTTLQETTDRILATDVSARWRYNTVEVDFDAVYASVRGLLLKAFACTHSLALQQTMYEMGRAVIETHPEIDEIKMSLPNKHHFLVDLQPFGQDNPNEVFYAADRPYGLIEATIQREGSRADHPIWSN
Nature of the data set: Enzyme activity kinetic study of PEGylated uricase with uric acid. Particulars: Tris-HCl pH 8.5, 37° C.; turnover number, substrate converted within one second. As for the experimental part: (§7) By using a method similar to that in Example 1 to introduce Cys mutations, the following molecules were prepared: AG-2C12, AG-2C13, AG-2C16, AG-2C17, AG-1C13-1, AG-2C01, AG-2C05-1, AG-2C01-1 and AG-2C12-1.
(§8) To 2 mg of a uricase (100 mM PBS buffer, pH=7.0, 150 mM NaCl) were sequentially added TCEP.HCl (0.5 mg, tris(2-carboxyethyl)phosphine hydrochloride) and M-MAL-PEG-10K (27.5 mg, maleimide polyethylene glycol, molecular weight of 10,000 Da). The mixture was allowed to react at room temperature for 2 h. The reaction mixture was purified by ion-exchange chromatography to obtain a PEGylated uricase.
(§9) The Cys mutation sites selected above were paired for PEGylation modification and uricase activity evaluation.
as §2, §3, §4, §5, §6

The target in data set [3] is T3, Micrococcus uricase variant AG-2C13-PEG (A35C/S288C in AG-00-1, SEQ ID NO: 3; PEGylated) (Arthrobacter globiformis, UniProt D0VWQ1, A35C/S288C).
T3 construct: purified
T3 sequence (D0VWQ1 1-297 A35C/S288C): T2 sequence (D0VWQ1 1-297 S142C/E216C) with A35C, C142S, C216E, S288C
Described as above. Particulars: Tris-HCl pH 8.5, 37° C.; turnover number, substrate converted within one second. The procedure:
as §7, §8, §9, §2, §3, §4, §5, §6

Data set [4] deals with T4, Micrococcus uricase variant AG-2C01-2-PEG (A35C/T194C in AG-00-1, SEQ ID NO: 3; PEGylated) (Arthrobacter globiformis, UniProt D0VWQ1, A35C/T194C).
T4 construct: purified
T4 sequence (D0VWQ1 1-297 A35C/T194C): T2 sequence (D0VWQ1 1-297 S142C/E216C) with A35C, C142S, T194C, C216E
Described as above. As to conditions: Tris-HCl pH 8.5, 37° C.; turnover number, substrate converted within one second. As for the experimental part:
as §7, §8, §9, §2, §3, §4, §5, §6

Substrate in data set [5]: O=c1[nH]c(=O)c2[nH]c(=O)[nH]c2[nH]1
Nature of the data set: Enzyme activity kinetic study of reference uricase with uric acid. Particulars: other: Tris-HCl pH 8.5, 37° C., uric acid 12.5-600 μmol. The procedure: as §1, §2, §3, §4, §5, §6

In general, Km refers to the concentration of substrate that gives half-maximal velocity.

As to `O=c1[nH]c(=O)c2[nH]c(=O)[nH]c2[nH]1` [uric acid], the Kcat was found to be 2.6 in data set [1], 5.3 in data set [2], 3.6 in data set [3] and 5.4 in data set [4].

B1: reference uricase MEDI4945 (SEQ ID NO: 2) (Arthrobacter globiformis; N33C/R49S/T11C) (protein)
chain: T1 sequence (D0VWQ1 with tags, fused parts or gaps T11C/N33C/R49S)
B1: the Km in data set [5] is 101 µM.
